Laboratory results as given in ChEMBL document CHEMBL4732096, “Design, synthesis and evaluation of calix[4]arene-based carbonyl amide derivatives with antitumor activities” (Eur J Med Chem, 2021).
The source made the active and inactive calls. The rule behind the calls is not given here.

What was measured:
[1] = test system: MDA-MB-231; assay: Potency index, ratio of IC50 of CLX-4 to IC50 of compound for antiproliferative activity against human MDA-MB-231 cells assessed as inhibition of cell growth measured after 72 hrs by MTT assay; format: functional
[2] = test system: MDA-MB-231; assay: Induction of morphological changes in human MDA-MB-231 cells assessed as rounded cell morphology at 10 to 100 uM by optical inverted microscopic analysis; format: functional, cell-based; settings: dose 10-100 µM
[3] = test system: MDA-MB-231; assay: Induction of apoptosis in human MDA-MB-231 cells assessed as increase in fluorescence intensity at 0.2 to 20 uM measured after 48 hrs by Hoechst 33342 staining based fluorescence microscopic analysis; format: functional, cell-based; settings: dose 0.2-20 µM
[4] = test system: MDA-MB-231; assay: Induction of apoptosis in human MDA-MB-231 cells assessed as increase in cleaved PARP level at 0.4 to 10 uM measured after 48 hrs by Western blot analysis; format: functional, cell-based; settings: dose 0.4-10 µM
[5] = test system: MDA-MB-231; assay: Induction of apoptosis in human MDA-MB-231 cells assessed as necrotic cells at 2 uM measured after 48 hrs by Annexin V-FITC/propidium iodide staining based flow cytometry (reference value: 0.36 %); format: functional
[6] = test system: A549; assay: Antiproliferative activity against human A549 cells assessed as inhibition of cell growth measured after 72 hrs by MTT assay; format: functional, cell-based; settings: A549, 72 h
[7] = test system: MDA-MB-231; assay: Induction of morphological changes in human MDA-MB-231 cells assessed as shedding of cell morphology at 10 to 100 uM by optical inverted microscopic analysis; format: functional, cell-based; settings: dose 10-100 µM
[8] = test system: MDA-MB-231; assay: Induction of apoptosis in human MDA-MB-231 cells assessed as viable cells at 0.2 uM measured after 48 hrs by Annexin V-FITC/propidium iodide staining based flow cytometry (reference value: 94.1 %); format: functional; settings: read-out: Activity
[9] = test system: MDA-MB-231; assay: Induction of apoptosis in human MDA-MB-231 cells assessed as late apoptotic cells at 20 uM measured after 48 hrs by Annexin V-FITC/propidium iodide staining based flow cytometry (reference value: 4.5 %); format: functional
[10] = test system: MDA-MB-231; assay: Induction of apoptosis in human MDA-MB-231 cells assessed as increase in apoptotic bodies at 0.2 to 20 uM measured after 48 hrs by Hoechst 33342 staining based fluorescence microscopic analysis; format: functional, cell-based; settings: dose 0.2-20 µM
[11] = test system: MDA-MB-231; assay: Antimigratory activity in human MDA-MB-231 cells assessed as cell migration at 8 uM measured after 48 hrs by wound healing assay (reference value: 67.4 %); format: functional
[12] = test system: MDA-MB-231; assay: Induction of apoptosis in human MDA-MB-231 cells assessed as early apoptotic cells at 2 uM measured after 48 hrs by Annexin V-FITC/propidium iodide staining based flow cytometry (reference value: 1.03 %); format: functional
[13] = test system: MDA-MB-231; assay: Antimigratory activity in human MDA-MB-231 cells assessed as cell migration at 2 uM measured after 48 hrs by wound healing assay (reference value: 67.4 %); format: functional
[14] = test system: MDA-MB-231; assay: Induction of apoptosis in human MDA-MB-231 cells assessed as nuclear rupture at 0.2 to 20 uM measured after 48 hrs by Hoechst 33342 staining based fluorescence microscopic analysis; format: functional, cell-based; settings: dose 0.2-20 µM
[15] = test system: MDA-MB-231; assay: Induction of apoptosis in human MDA-MB-231 cells assessed as increase in Bax expression at 0.4 to 10 uM measured after 48 hrs by Western blot analysis; format: functional, cell-based; settings: dose 0.4-10 µM
[16] = test system: MDA-MB-231; assay: Induction of cell cycle arrest in human MDA-MB-231 cells assessed as increase in accumulation in G0/G1 phase at 0.2 to 20 uM measured after 48 hrs by propidium iodide staining based flow cytometry; format: functional; settings: dose 0.2-20 µM
[17] = test system: MDA-MB-231; assay: Induction of apoptosis in human MDA-MB-231 cells assessed as early apoptotic cells at 0.2 uM measured after 48 hrs by Annexin V-FITC/propidium iodide staining based flow cytometry (reference value: 1.03 %); format: functional
[18] = test system: MDA-MB-231; assay: Induction of apoptosis in human MDA-MB-231 cells assessed as nuclear condensation at 0.2 to 20 uM measured after 48 hrs by Hoechst 33342 staining based fluorescence microscopic analysis; format: functional, cell-based; settings: dose 0.2-20 µM
[19] = test system: MDA-MB-231; assay: Induction of apoptosis in human MDA-MB-231 cells assessed as early apoptotic cells at 20 uM measured after 48 hrs by Annexin V-FITC/propidium iodide staining based flow cytometry (reference value: 1.03 %); format: functional
[20] = test system: MDA-MB-231; assay: Induction of apoptosis in human MDA-MB-231 cells assessed as viable cells at 20 uM measured after 48 hrs by Annexin V-FITC/propidium iodide staining based flow cytometry (reference value: 94.1 %); format: functional; settings: read-out: Activity
[21] = test system: MDA-MB-231; assay: Antiproliferative activity against human MDA-MB-231 cells assessed as inhibition of cell growth measured after 72 hrs by MTT assay; format: functional, cell-based; settings: MDA-MB-231, 72 h
[22] = test system: MDA-MB-231; assay: Induction of morphological changes in human MDA-MB-231 cells assessed as cell shrinkage at 10 to 100 uM by optical inverted microscopic analysis; format: functional, cell-based; settings: dose 10-100 µM
[23] = test system: MDA-MB-231; assay: Induction of apoptosis in human MDA-MB-231 cells assessed as decrease in Bcl-2 expression at 0.4 to 10 uM measured after 48 hrs by Western blot analysis; format: functional, cell-based; settings: dose 0.4-10 µM
[24] = test system: A549; assay: Potency index, ratio of IC50 of CLX-4 to IC50 of compound for antiproliferative activity against human A549 cells assessed as inhibition of cell growth measured after 72 hrs by MTT assay; format: functional
[25] = test system: MDA-MB-231; assay: Induction of apoptosis in human MDA-MB-231 cells assessed as late apoptotic cells at 0.2 uM measured after 48 hrs by Annexin V-FITC/propidium iodide staining based flow cytometry (reference value: 4.5 %); format: functional
[26] = test system: MDA-MB-231; assay: Induction of apoptosis in human MDA-MB-231 cells assessed as late apoptotic cells at 2 uM measured after 48 hrs by Annexin V-FITC/propidium iodide staining based flow cytometry (reference value: 4.5 %); format: functional
[27] = test system: MDA-MB-231; assay: Induction of apoptosis in human MDA-MB-231 cells assessed as viable cells at 2 uM measured after 48 hrs by Annexin V-FITC/propidium iodide staining based flow cytometry (reference value: 94.1 %); format: functional; settings: read-out: Activity
[28] = test system: HepG2; assay: Antiproliferative activity against human HepG2 cells assessed as inhibition of cell growth at 10 uM measured after 72 hrs by MTT assay relative to control; format: functional
[29] = test system: MDA-MB-231; assay: Induction of apoptosis in human MDA-MB-231 cells assessed as increase in ratio of Bax/Bcl-2 at 0.4 to 10 uM measured after 48 hrs by Western blot analysis; format: functional, cell-based; settings: dose 0.4-10 µM
[30] = test system: A549; assay: Antiproliferative activity against human A549 cells assessed as inhibition of cell growth at 10 uM measured after 72 hrs by MTT assay relative to control; format: functional
[31] = test system: MDA-MB-231; assay: Induction of apoptosis in human MDA-MB-231 cells assessed as necrotic cells at 0.2 uM measured after 48 hrs by Annexin V-FITC/propidium iodide staining based flow cytometry (reference value: 0.36 %); format: functional
[32] = test system: MDA-MB-231; assay: Induction of apoptosis in human MDA-MB-231 cells assessed as necrotic cells at 20 uM measured after 48 hrs by Annexin V-FITC/propidium iodide staining based flow cytometry (reference value: 0.36 %); format: functional
[33] = test system: MDA-MB-231; assay: Antiproliferative activity against human MDA-MB-231 cells assessed as inhibition of cell growth at 10 uM measured after 72 hrs by MTT assay relative to control; format: functional
[34] = test system: MCF7; assay: Antiproliferative activity against human MCF7 cells assessed as inhibition of cell growth at 10 uM measured after 72 hrs by MTT assay relative to control; format: functional
[35] = test system: MDA-MB-231; assay: Induction of cell cycle arrest in human MDA-MB-231 cells assessed as decrease in CyclinD1 expression at 0.4 to 10 uM measured after 48 hrs by Western blot analysis; format: functional, cell-based; settings: dose 0.4-10 µM
[36] = test system: MDA-MB-231; assay: Antimigratory activity in human MDA-MB-231 cells assessed as cell migration at 4 uM measured after 48 hrs by wound healing assay (reference value: 67.4 %); format: functional
[37] = test system: MDA-MB-231; assay: Induction of cell cycle arrest in human MDA-MB-231 cells assessed as decrease in CDK4 expression at 0.4 to 10 uM measured after 48 hrs by Western blot analysis; format: functional, cell-based; settings: dose 0.4-10 µM
[38] = test system: MDA-MB-231; assay: Antimigratory activity in human MDA-MB-231 cells assessed as reduction in cell migration measured after 48 hrs by wound healing assay; format: functional, cell-based
[39] = Cytotoxicity against HUVEC cells assessed as inhibition of cell growth at 10 uM measured after 72 hrs by MTT assay; format: cell-based; settings: human
[40] = test system: HT-29; assay: Antiproliferative activity against human HT-29 cells assessed as inhibition of cell growth at 10 uM measured after 72 hrs by MTT assay relative to control; format: functional
[41] = test system: MDA-MB-231; assay: Induction of apoptosis in human MDA-MB-231 cells assessed as increase in caspase-3 activation at 0.4 to 10 uM measured after 48 hrs by Western blot analysis; format: functional, cell-based; settings: dose 0.4-10 µM

## CCC(Oc1c2cc(C(C)(C)C)cc1Cc1cc(C(C)(C)C)cc(c1O)Cc1cc(C(C)(C)C)cc(c1OC(CC)C(=O)N(CCO)CCO)Cc1cc(C(C)(C)C)cc(c1O)C2)C(=O)N(CCO)CCO (stereo unspecified)
[1]
  Ratio IC50: 6.8
[2]
  Activity: Active
[3]
  Activity: Active
[4]
  Activity: Active
[5]
  Activity: 0.34%
[6]
  IC50: 1.2 µM
[7]
  Activity: Active
[8]
  viability at 0.2 µM: 65.5%
[9]
  Activity: 40.4%
[10]
  Activity: Active
[11]
  Activity: 84%
[12]
  Activity: 22.1%
[13]
  Activity: 76.9%
[14]
  Activity: Active
[15]
  Activity: Active
[16]
  Activity: Active
[17]
  Activity: 12.3%
[18]
  Activity: Active
[19]
  Activity: 19.2%
[20]
  viability at 20 µM: 39%
[21]
  IC50: 0.66 µM
[22]
  Activity: Active
[23]
  Activity: Active
[24]
  Ratio IC50: 3.2
[25]
  Activity: 21.2%
[26]
  Activity: 20.7%
[27]
  viability at 2 µM: 56.9%
[28]
  inhibition at 10 µM: 89.6%
[29]
  Activity: Active
[30]
  inhibition at 10 µM: 90.7%
[31]
  Activity: 1.13%
[32]
  Activity: 1.37%
[33]
  inhibition at 10 µM: 88.2%
[34]
  inhibition at 10 µM: 90.4%
[35]
  Activity: Active
[36]
  Activity: 79%
[37]
  Activity: Active
[38]
  Activity: Dose-dependent effect
[39]
  inhibition at 72 h, 10 µM: 9.6%
[40]
  inhibition at 10 µM: 64.2%
[41]
  Activity: Active
